In one data set the target is T1, GLUT7 (Homo sapiens, UniProt Q6PXP3).
T1 construct: host or cells: Xenopus oocytes mainly; also COS-7, CHO, yeast variants (not tied to single values)
T1 sequence (Q6PXP3 1-512): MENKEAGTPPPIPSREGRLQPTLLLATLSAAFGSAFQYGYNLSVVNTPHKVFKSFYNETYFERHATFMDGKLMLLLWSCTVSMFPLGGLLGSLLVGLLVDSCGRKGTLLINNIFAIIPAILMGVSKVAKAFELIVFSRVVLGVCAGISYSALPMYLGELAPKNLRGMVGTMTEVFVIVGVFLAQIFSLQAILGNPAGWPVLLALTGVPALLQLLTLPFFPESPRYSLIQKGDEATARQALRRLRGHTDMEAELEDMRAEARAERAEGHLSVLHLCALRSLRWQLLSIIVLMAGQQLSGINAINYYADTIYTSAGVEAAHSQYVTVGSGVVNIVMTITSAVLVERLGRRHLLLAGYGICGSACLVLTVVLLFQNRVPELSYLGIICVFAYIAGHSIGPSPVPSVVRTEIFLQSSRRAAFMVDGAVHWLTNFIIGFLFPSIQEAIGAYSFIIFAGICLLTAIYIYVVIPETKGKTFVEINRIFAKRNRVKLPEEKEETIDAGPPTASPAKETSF
The note with it: literature; cited from earlier work.

In a further data set the target is T2, GLUT9 (Homo sapiens, UniProt Q9NRM0).
T2 construct: host or cells: Xenopus oocytes mainly; also COS-7, CHO, yeast variants (not tied to single values)
T2 sequence (Q9NRM0 1-540): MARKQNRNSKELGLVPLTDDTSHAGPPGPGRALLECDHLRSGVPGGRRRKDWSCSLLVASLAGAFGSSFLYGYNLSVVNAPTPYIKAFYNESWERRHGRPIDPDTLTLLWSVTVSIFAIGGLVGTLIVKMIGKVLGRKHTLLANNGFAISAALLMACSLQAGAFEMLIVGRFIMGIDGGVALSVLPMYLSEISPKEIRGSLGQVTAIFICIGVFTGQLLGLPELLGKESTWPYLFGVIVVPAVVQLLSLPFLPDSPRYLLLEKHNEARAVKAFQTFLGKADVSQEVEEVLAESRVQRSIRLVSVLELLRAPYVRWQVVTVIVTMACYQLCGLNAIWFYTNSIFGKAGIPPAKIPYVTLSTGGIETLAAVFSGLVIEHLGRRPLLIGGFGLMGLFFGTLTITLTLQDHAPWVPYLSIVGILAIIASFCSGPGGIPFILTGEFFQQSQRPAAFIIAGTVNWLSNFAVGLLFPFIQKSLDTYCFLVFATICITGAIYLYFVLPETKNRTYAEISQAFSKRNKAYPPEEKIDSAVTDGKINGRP
The following applies: literature; cited from earlier work.

The next data set has as its target T3, GLUT3 (Homo sapiens, UniProt P11169).
T3 construct: host or cells: Xenopus oocytes mainly; also COS-7, CHO, yeast variants (not tied to single values)
T3 sequence (P11169 1-496): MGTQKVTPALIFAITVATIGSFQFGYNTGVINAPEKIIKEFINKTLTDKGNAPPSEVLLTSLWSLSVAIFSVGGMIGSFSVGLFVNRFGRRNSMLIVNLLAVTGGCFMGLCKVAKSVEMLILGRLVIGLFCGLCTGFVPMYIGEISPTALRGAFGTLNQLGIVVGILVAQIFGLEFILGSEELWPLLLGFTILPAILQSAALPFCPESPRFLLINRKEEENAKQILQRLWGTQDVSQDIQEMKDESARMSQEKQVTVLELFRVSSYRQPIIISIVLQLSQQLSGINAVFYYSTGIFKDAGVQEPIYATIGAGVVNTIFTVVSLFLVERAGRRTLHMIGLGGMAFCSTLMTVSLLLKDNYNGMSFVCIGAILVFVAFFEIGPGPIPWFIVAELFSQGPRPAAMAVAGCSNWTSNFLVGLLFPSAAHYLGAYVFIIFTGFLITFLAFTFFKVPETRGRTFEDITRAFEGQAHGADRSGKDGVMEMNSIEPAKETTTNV
The following applies: literature; cited from earlier work.

A further data set deals with T4, GLUT5 (Homo sapiens, UniProt P22732).
T4 construct: host or cells: Xenopus oocytes mainly; also COS-7, CHO, yeast variants (not tied to single values)
T4 sequence (P22732 1-501): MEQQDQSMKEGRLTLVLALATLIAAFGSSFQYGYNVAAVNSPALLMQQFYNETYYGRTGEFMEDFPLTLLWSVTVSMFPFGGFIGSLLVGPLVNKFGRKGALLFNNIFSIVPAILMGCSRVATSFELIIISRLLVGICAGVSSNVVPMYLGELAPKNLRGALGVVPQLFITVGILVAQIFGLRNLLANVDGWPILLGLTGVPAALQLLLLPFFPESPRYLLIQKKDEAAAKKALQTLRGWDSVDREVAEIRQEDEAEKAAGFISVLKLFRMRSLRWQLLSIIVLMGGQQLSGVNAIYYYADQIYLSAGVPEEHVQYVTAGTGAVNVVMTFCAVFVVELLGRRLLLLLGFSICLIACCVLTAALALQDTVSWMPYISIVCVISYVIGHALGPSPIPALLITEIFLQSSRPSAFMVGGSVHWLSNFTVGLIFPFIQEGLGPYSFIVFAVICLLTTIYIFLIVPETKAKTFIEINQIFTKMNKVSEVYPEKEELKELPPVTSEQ
The note with it: literature; cited from earlier work.

The next data set deals with T5, GLUT11 (Homo sapiens, UniProt Q9BYW1).
T5 construct: host or cells: Xenopus oocytes mainly; also COS-7, CHO, yeast variants (not tied to single values)
T5 sequence (Q9BYW1 1-496): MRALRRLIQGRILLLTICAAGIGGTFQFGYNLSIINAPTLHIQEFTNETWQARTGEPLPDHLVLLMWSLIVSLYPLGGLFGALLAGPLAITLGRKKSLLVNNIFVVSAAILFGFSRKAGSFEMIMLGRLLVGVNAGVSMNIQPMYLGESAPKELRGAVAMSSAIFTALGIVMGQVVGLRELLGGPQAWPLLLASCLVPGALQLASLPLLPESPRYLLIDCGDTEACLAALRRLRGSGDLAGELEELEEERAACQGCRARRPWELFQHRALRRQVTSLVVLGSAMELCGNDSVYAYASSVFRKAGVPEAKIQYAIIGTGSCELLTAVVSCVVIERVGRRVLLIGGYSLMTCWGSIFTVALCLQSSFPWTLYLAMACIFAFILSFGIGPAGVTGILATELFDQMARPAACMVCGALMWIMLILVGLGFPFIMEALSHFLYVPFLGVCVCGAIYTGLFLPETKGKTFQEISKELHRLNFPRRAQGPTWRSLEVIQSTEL
The note with it: literature; cited from earlier work.

The target of the next data set is T6, GLUT2 (Homo sapiens, UniProt P11168).
T6 construct: host or cells: Xenopus oocytes mainly; also COS-7, CHO, yeast variants (not tied to single values)
T6 sequence (P11168 1-524): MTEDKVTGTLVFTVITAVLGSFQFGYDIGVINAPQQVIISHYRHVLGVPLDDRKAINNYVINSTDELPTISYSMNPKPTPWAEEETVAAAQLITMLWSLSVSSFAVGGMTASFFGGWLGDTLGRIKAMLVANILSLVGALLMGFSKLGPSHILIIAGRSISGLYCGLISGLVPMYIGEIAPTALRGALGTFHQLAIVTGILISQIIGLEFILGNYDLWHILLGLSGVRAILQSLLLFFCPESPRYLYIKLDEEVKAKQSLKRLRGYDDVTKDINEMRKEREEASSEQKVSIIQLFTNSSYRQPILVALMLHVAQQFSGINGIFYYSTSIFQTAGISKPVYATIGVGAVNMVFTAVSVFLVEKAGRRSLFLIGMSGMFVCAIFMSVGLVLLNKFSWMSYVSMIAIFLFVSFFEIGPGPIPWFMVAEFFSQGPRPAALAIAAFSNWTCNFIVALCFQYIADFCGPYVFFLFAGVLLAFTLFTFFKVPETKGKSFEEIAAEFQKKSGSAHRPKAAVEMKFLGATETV
The following applies: literature; cited from earlier work.

The conditions of data set [1]: compared with the parent ifosfamide; cited from earlier work.
Data set [2] relates to MCF10A (immortalized breast), MCF7 (breast cancer), A549 (non-small cell lung cancer), Du145 (prostrate cancer), RWPE (immortalized prostrate). Kind of data set: Sugar transporter assay: uptake of sugar-fluorophore conjugates by intracellular fluorescence, normalized to cell number. The note with it: 1 hour incubation; dose range 250-0 μM; five cell lines; compared with D-glucose conjugate. Format: cell-based. How it is done:
FIG. 5. Representative sugar transporter assays. […] For each cell line, the dose range was 250 μM, 125 μM, 62.5 μM, 31.3 μM, 15.6 μM, 7.8 μM, 3.9 μM and 0 μM. The average error (40 compounds, 5 cell lines) was 8.3%.
For the sugar transporter assay of the present invention, cells were plated at a density of 30,000 cells/ml (100 μL/well) in a 96-well clear bottom microtiter plates. Cells were allowed to attach overnight, and then incubated in glucose-free medium for an additional 24 hours. Compounds were added (from 96-well compound stock plates at a 1:100 dilution) using a Biomek FX liquid handler equipped with a 96 channel head. The plates were incubated for 1 hour and then the compound solution was removed by gentle aspiration. The cells were subsequently washed (1×100 μL) with phosphate buffered saline to remove residual fluorescent dye.
Sugar-conjugate uptake was assessed via intracellular fluorescence (FIG. 4b-4f) as determined using a Safire2™ multi-mode microplate reader (δex=485 nm, δem=535 nm) and normalized to cell number by a subsequent CellTiter-Glo® luminescent cell viability assay. […] The CellTiter-Glo® luminescent cell viability assay was analyzed on a Safire2™ multi-mode microplate reader for luminescence at 1 second per well. As an initial preliminary study, the transport assay with a representative set of probes was also analyzed using microscopy (FIG. 6).

Turning to `O=CC[C@@H](O)[C@H](O)[C@H](O)CO` [2-deoxyglucose], the “transport by GLUT7” value at GLUT7 is “does not transport”. Further, at GLUT9, the “transport by GLUT9” value is “transport”. Moreover, the “affinity for GLUT3” value at GLUT3 is “approximately 1.5 mM”.
For the compound `O=C(CO)[C@@H](O)[C@H](O)[C@H](O)CO` [fructose], on GLUT5, the “affinity for GLUT5” value is “approximately 1 mM”. Besides, on GLUT11, the “transport by GLUT11” value was “provides for transport”.
On to `O=C[C@H](O)[C@@H](O)[C@@H](O)[C@H](O)CO` [galactose], for which, on GLUT11, the “transport by GLUT11” value was “not galactose”. Also, on GLUT7, the “transport by GLUT7” value was “does not transport”.
Consider `N[C@H]1C(O)O[C@H](CO)[C@@H](O)[C@@H]1O` (stereo partly drawn) [glucosamine], for which, at GLUT2, the “affinity for GLUT2” value was “approximately 1 mM”.
Take `O=P(NCCCl)(NCCCl)O[C@@H]1O[C@H](CO)[C@@H](O)[C@H](O)[C@H]1O` [glufosfamide]: in data set [1], the antitumor activity result is listed as “higher antitumor activity” and the myelotoxicity entry is reported as “lower myelotoxicity”.
Regarding `O=C[C@H](O)[C@@H](O)[C@H](O)CO` [xylose], the “transport by GLUT7” value on GLUT7 is “does not transport”.
For the compound aminofluoroscein [parent 11], the “sugar-conjugate uptake (intracellular fluorescence normalized to cell number)” value in data set [2] is reported as “No uptake”.

Source of the values: patent publication US8211654B2, “High-throughput assay for sugar-mediated drug transport” (Wisconsin Alumni Research Foundation, priority 2008, dated 2012).
